Assay results as given in ChEMBL document CHEMBL3885861, “Open TG-GATES”.

Organism: Rattus norvegicus
Assay: Open TG-GATES - Regimen: Daily Repeat
Assay type: toxicity, organism-based, Sprague-Dawley
Set-up: regimen Daily Repeat, gender Male, age 6 weeks
Conditions: in vivo, po, route gavage; for ALP / ALT / AST / BUN / CRE / Ca / Cl / DBIL / GLC / IP / K / LDH / Na / PL / RALB / TBIL / TC / TG / TP / gamma-GTP / A/G: tissue Plasma; for APTT / Bas / Eos / Fbg / Hb / Ht / Lym / MCH / MCHC / MCV / Mono / Neu / PT / Plat / RBC / Ret / WBC: tissue Blood; for KIDNEY_L / KIDNEY_R / KIDNEY_TOTAL: tissue Kidney; for LIVER: tissue Liver
[1] = 3 mg/kg, […], dose level Low, time 14 day
[2] = 3 mg/kg, […], dose level Low, time 28 day
[3] = 10 mg/kg, 72 h, dose level Middle, time 3 day
[4] = 10 mg/kg, […], dose level Middle, time 7 day
[5] = 10 mg/kg, […], dose level Middle, time 14 day
[6] = 10 mg/kg, […], dose level Middle, time 28 day
[7] = 30 mg/kg, 72 h, dose level High, time 3 day
[8] = 30 mg/kg, […], dose level High, time 7 day
[9] = 30 mg/kg, […], dose level High, time 14 day

C[C@H]1C(=O)O[C@@H]2CCN3CC=C(COC(=O)[C@](C)(O)[C@]1(C)O)[C@H]23 [MONOCROTALINE]
ALP [1]: 1435.6 IU/L | ALT [1]: 41.4 IU/L | AST [1]: 76.6 IU/L | BUN [1]: 16.4 mg/dL | CRE [1]: 0.2 mg/dL | Ca [1]: 11 mg/dL | Cl [1]: 106.4 meq/L | DBIL [1]: 0 mg/dL | GLC [1]: 185.4 mg/dL | IP [1]: 6.2 mg/dL | K [1]: 4 meq/L | LDH [1]: 269.8 IU/L | Na [1]: 142.4 meq/L | PL [1]: 161.6 mg/dL | RALB [1]: 3 g/dL | TBIL [1]: 0 mg/dL | TC [1]: 92.2 mg/dL | TG [1]: 97 mg/dL | TP [1]: 5.9 g/dL | gamma-GTP [1]: 2.2 IU/L | A/G [2]: 1.1 | ALP [2]: 1124.2 IU/L | ALT [2]: 41.8 IU/L | AST [2]: 87.4 IU/L | BUN [2]: 19 mg/dL | CRE [2]: 0.2 mg/dL | Ca [2]: 10.7 mg/dL | Cl [2]: 108.4 meq/L | DBIL [2]: 0 mg/dL | GLC [2]: 182.2 mg/dL | IP [2]: 6 mg/dL | K [2]: 4.3 meq/L | LDH [2]: 290.2 IU/L | Na [2]: 143.2 meq/L | PL [2]: 158.8 mg/dL | RALB [2]: 3.2 g/dL | TBIL [2]: 0.034 mg/dL | TC [2]: 81.2 mg/dL | TG [2]: 128.2 mg/dL | TP [2]: 6.1 g/dL | gamma-GTP [2]: 1.2 IU/L | TERMINAL_BW [3]: 231.2 g | APTT [3]: 19.4 s | Bas [3]: 0% | Eos [3]: 0.8% | Fbg [3]: 324.6 mg/dL | Hb [3]: 13.8 g/dL | Ht [3]: 40.1% | Lym [3]: 78.2% | MCH [3]: 21.5 pg | MCHC [3]: 34.5% | MCV [3]: 62.2 fL | Mono [3]: 2.8% | Neu [3]: 17.6% | PT [3]: 15.9 s | Plat [3]: 126.9 x10_4/uL | RBC [3]: 646.6 x10_4/ul | Ret [3]: 6% | WBC [3]: 73.2 x10_2/uL | KIDNEY_L [3]: 1 g | KIDNEY_R [3]: 1 g | KIDNEY_TOTAL [3]: 2 g | LIVER [3]: 10.7 g | A/G [3]: 1.3 | ALP [3]: 1897.2 IU/L | ALT [3]: 40.8 IU/L | AST [3]: 73.6 IU/L | BUN [3]: 16.2 mg/dL | CRE [3]: 0.2 mg/dL | Ca [3]: 10.9 mg/dL | Cl [3]: 106.4 meq/L | DBIL [3]: 0.002 mg/dL | GLC [3]: 184.4 mg/dL | IP [3]: 7.2 mg/dL | K [3]: 4.6 meq/L | LDH [3]: 283 IU/L | Na [3]: 142 meq/L | PL [3]: 167.2 mg/dL | RALB [3]: 3.1 g/dL | TBIL [3]: 0.01 mg/dL | TC [3]: 90.4 mg/dL | TG [3]: 113.6 mg/dL | TP [3]: 5.5 g/dL | gamma-GTP [3]: 1 IU/L | TERMINAL_BW [4]: 249.4 g | TERMINAL_BW [5]: 274.8 g | TERMINAL_BW [6]: 321 g | APTT [4]: 21.5 s | Bas [4]: 0% | Eos [4]: 1% | Fbg [4]: 391.6 mg/dL | Hb [4]: 13.9 g/dL | Ht [4]: 39.4% | Lym [4]: 78.8% | MCH [4]: 20.7 pg | MCHC [4]: 35.1% | MCV [4]: 58.8 fL | Mono [4]: 4.2% | Neu [4]: 14.8% | PT [4]: 16.4 s | Plat [4]: 134.7 x10_4/uL | RBC [4]: 670.6 x10_4/ul | Ret [4]: 4.5% | WBC [4]: 135.7 x10_2/uL | APTT [5]: 21.2 s | Bas [5]: 0% | Eos [5]: 0.2% | Fbg [5]: 480 mg/dL | Hb [5]: 14.4 g/dL | Ht [5]: 41.1% | Lym [5]: 84.2% | MCH [5]: 20.5 pg | MCHC [5]: 35.2% | MCV [5]: 58.2 fL | Mono [5]: 4.8% | Neu [5]: 9.6% | PT [5]: 16.4 s | Plat [5]: 136.8 x10_4/uL | RBC [5]: 705.4 x10_4/ul | Ret [5]: 2.9% | WBC [5]: 250.8 x10_2/uL | APTT [6]: 26.9 s | Bas [6]: 0% | Eos [6]: 1% | Fbg [6]: 293.8 mg/dL | Hb [6]: 15.3 g/dL | Ht [6]: 43.1% | Lym [6]: 76.4% | MCH [6]: 18.8 pg | MCHC [6]: 35.6% | MCV [6]: 52.7 fL | Mono [6]: 4.6% | Neu [6]: 17% | PT [6]: 16.1 s | Plat [6]: 84.1 x10_4/uL | RBC [6]: 818 x10_4/ul | Ret [6]: 4.5% | WBC [6]: 308 x10_2/uL | KIDNEY_L [4]: 1.1 g | KIDNEY_R [4]: 1.1 g | KIDNEY_TOTAL [4]: 2.2 g | KIDNEY_L [5]: 1.1 g | KIDNEY_R [5]: 1.2 g | KIDNEY_TOTAL [5]: 2.3 g | KIDNEY_L [6]: 1.3 g | KIDNEY_R [6]: 1.3 g | KIDNEY_TOTAL [6]: 2.6 g | LIVER [4]: 11.6 g | LIVER [5]: 13.3 g | LIVER [6]: 15 g | A/G [4]: 1.1 | ALP [4]: 1684.4 IU/L | ALT [4]: 46.6 IU/L | AST [4]: 87.8 IU/L | BUN [4]: 15.4 mg/dL | CRE [4]: 0.1 mg/dL | Ca [4]: 11 mg/dL | Cl [4]: 107.4 meq/L | DBIL [4]: 0.002 mg/dL | GLC [4]: 181.2 mg/dL | IP [4]: 6.6 mg/dL | K [4]: 4.3 meq/L | LDH [4]: 236 IU/L | Na [4]: 142 meq/L | PL [4]: 149 mg/dL | RALB [4]: 3 g/dL | TBIL [4]: 0.006 mg/dL | TC [4]: 82 mg/dL | TG [4]: 111 mg/dL | TP [4]: 5.7 g/dL | gamma-GTP [4]: 1.8 IU/L | A/G [5]: 0.8 | ALP [5]: 2092 IU/L | ALT [5]: 88.8 IU/L | AST [5]: 174.4 IU/L | BUN [5]: 17.2 mg/dL | CRE [5]: 0.3 mg/dL | Ca [5]: 11.2 mg/dL | Cl [5]: 106.6 meq/L | DBIL [5]: 0.006 mg/dL | GLC [5]: 171 mg/dL | IP [5]: 5.9 mg/dL | K [5]: 4.8 meq/L | LDH [5]: 454.8 IU/L | Na [5]: 141 meq/L | PL [5]: 139 mg/dL | RALB [5]: 2.6 g/dL | TBIL [5]: 0.008 mg/dL | TC [5]: 71.6 mg/dL | TG [5]: 103.2 mg/dL | TP [5]: 5.8 g/dL | gamma-GTP [5]: 2.4 IU/L | A/G [6]: 0.9 | ALP [6]: 1353.2 IU/L | ALT [6]: 82.8 IU/L | AST [6]: 155 IU/L | BUN [6]: 17.4 mg/dL | CRE [6]: 0.2 mg/dL | Ca [6]: 11 mg/dL | Cl [6]: 107.8 meq/L | DBIL [6]: 0.078 mg/dL | GLC [6]: 167.6 mg/dL | IP [6]: 6 mg/dL | K [6]: 4.5 meq/L | LDH [6]: 382.8 IU/L | Na [6]: 141.4 meq/L | PL [6]: 140 mg/dL | RALB [6]: 2.9 g/dL | TBIL [6]: 0.1 mg/dL | TC [6]: 79.6 mg/dL | TG [6]: 47.2 mg/dL | TP [6]: 6 g/dL | gamma-GTP [6]: 1.6 IU/L | TERMINAL_BW [7]: 232.9 g | APTT [7]: 17.3 s | Bas [7]: 0% | Eos [7]: 0.8% | Fbg [7]: 350.2 mg/dL | Hb [7]: 13.8 g/dL | Ht [7]: 39.9% | Lym [7]: 73.6% | MCH [7]: 21.4 pg | MCHC [7]: 34.5% | MCV [7]: 62.1 fL | Mono [7]: 4.4% | Neu [7]: 19.8% | PT [7]: 16.2 s | Plat [7]: 124.3 x10_4/uL | RBC [7]: 643.2 x10_4/ul | Ret [7]: 4.8% | WBC [7]: 80.8 x10_2/uL | KIDNEY_L [7]: 1 g | KIDNEY_R [7]: 1 g | KIDNEY_TOTAL [7]: 2.1 g | LIVER [7]: 12.5 g | A/G [7]: 1.3 | ALP [7]: 1831.6 IU/L | ALT [7]: 47.2 IU/L | AST [7]: 112.4 IU/L | BUN [7]: 13.6 mg/dL | CRE [7]: 0.1 mg/dL | Ca [7]: 11.1 mg/dL | Cl [7]: 106.4 meq/L | DBIL [7]: 0.01 mg/dL | GLC [7]: 180.2 mg/dL | IP [7]: 7 mg/dL | K [7]: 4.5 meq/L | LDH [7]: 398 IU/L | Na [7]: 141.2 meq/L | PL [7]: 161.4 mg/dL | RALB [7]: 3.2 g/dL | TBIL [7]: 0.028 mg/dL | TC [7]: 88.4 mg/dL | TG [7]: 100 mg/dL | TP [7]: 5.7 g/dL | gamma-GTP [7]: 1.2 IU/L | TERMINAL_BW [8]: 230.5 g | APTT [8]: 24.3 s | Bas [8]: 0% | Eos [8]: 0.4% | Fbg [8]: 451.4 mg/dL | Hb [8]: 14.1 g/dL | Ht [8]: 40.7% | Lym [8]: 71.6% | MCH [8]: 20.2 pg | MCHC [8]: 34.6% | MCV [8]: 58.3 fL | Mono [8]: 4.8% | Neu [8]: 18.6% | PT [8]: 17.5 s | Plat [8]: 44 x10_4/uL | RBC [8]: 697.8 x10_4/ul | Ret [8]: 2.9% | WBC [8]: 122 x10_2/uL | Mono [9]: 7% | KIDNEY_L [8]: 1.1 g | KIDNEY_R [8]: 1.1 g | KIDNEY_TOTAL [8]: 2.2 g | LIVER [8]: 11.3 g | A/G [8]: 1 | ALP [8]: 1889.2 IU/L | ALT [8]: 273.2 IU/L | AST [8]: 504.2 IU/L | BUN [8]: 13 mg/dL | CRE [8]: 0.2 mg/dL | Ca [8]: 10.8 mg/dL | Cl [8]: 106 meq/L | DBIL [8]: 0.2 mg/dL | GLC [8]: 156 mg/dL | IP [8]: 6.9 mg/dL | K [8]: 4.4 meq/L | LDH [8]: 749.6 IU/L | Na [8]: 141 meq/L | PL [8]: 139.8 mg/dL | RALB [8]: 2.6 g/dL | TBIL [8]: 0.3 mg/dL | TC [8]: 86.4 mg/dL | TG [8]: 38.8 mg/dL | TP [8]: 5.3 g/dL | gamma-GTP [8]: 2.2 IU/L | BUN [9]: 13.5 mg/dL | CRE [9]: 0.2 mg/dL | TP [9]: 4.9 g/dL
